In the supplement of paper PMC10477900:
Counter-ions that a name gives are not always drawn.

Assays:
[1] = test system: HCT116; conditions: 72 h
Experimental: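 HCT116 control and MTA1-KO (CRISPR) HCT116 cells were seeded in 384-well plates (800 cells/well), treated 16 h later with 237 metabolism-related anticancer drugs at five doses (10 uM, 2 uM, 400 nM, 80 nM, 16 nM) for 72 h, two replicates; viability by CCK8. Values are % inhibition of viability relative to untreated cells, plus fitted IC50.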

[2] = test system: HCT116; test: viability inhibition vs untreated; higher = more cytotoxic; conditions: 72 h

Row | SMILES | IC50 ([1]; genotype: MTA1-KO) | IC50 ([1]; genotype: control) | viability inhibition ([2]; genotype: MTA1-KO, 16 nM) | viability inhibition ([2]; genotype: MTA1-KO, 80 nM) | viability inhibition ([2]; genotype: MTA1-KO, 400 nM) | viability inhibition ([2]; genotype: MTA1-KO, 2000 nM) | viability inhibition ([2]; genotype: MTA1-KO, 10000 nM) | viability inhibition ([2]; genotype: control, 16 nM) | viability inhibition ([2]; genotype: control, 80 nM) | viability inhibition ([2]; genotype: control, 400 nM) | viability inhibition ([2]; genotype: control, 2000 nM) | viability inhibition ([2]; genotype: control, 10000 nM)
1 | CC(C)CC(N)=O [Isovaleramide] | > 10 µM | > 10 µM | -15.6% | -17.2% | -11.3% | -17.2% | -13% | -6.22% | -6.16% | -2.21% | -1.96% | -10.4%
2 | O=C(Nc1ccc(O)cc1)c1ccccc1O [Osalmid] | > 10 µM | > 10 µM | -19.6% | -14.3% | -16% | -6.29% | -7.75% | -15.5% | -18.3% | -10.9% | -10.7% | 5%
3 | CN(C)C(=N)N=C(N)N [Metformin hydrochloride] | > 10 µM | > 10 µM | -20.9% | -15.7% | -16.8% | -16.1% | -14.1% | -3.73% | -8.51% | 4.88% | 7.24% | 3.98%
4 | Oc1ccc2c(c1)OCO2 [Sesamol] | > 10 µM | > 10 µM | -15.3% | -20.6% | -20.7% | -23.5% | -9.02% | 12.7% | -1.76% | -11.9% | -12.6% | -2.94%
5 | NC(=O)c1ncn([C@@H]2O[C@H](CO)[C@@H](O)[C@H]2O)c1N [AICAR (Acadesine)] | > 10 µM | > 10 µM | -0.376% | 0.906% | -7.18% | -5.56% | 6.99% | -3.52% | -3.58% | -3.52% | -4.22% | 37.8%
6 | NNC(=O)c1ccncc1 [Isoniazid] | > 10 µM | > 10 µM | -5.84% | -18.3% | -14.4% | -18.3% | -0.042% | -10.3% | -11.9% | -11.5% | 1.11% | 38%
7 | Nc1nc2[nH]cc(CCc3ccc(C(=O)N[C@@H](CCC(=O)O)C(=O)O)cc3)c2c(=O)[nH]1 [Pemetrexed Disodium Hydrate] | 1.71 µM | > 10 µM | -0.998% | 0.351% | -2.35% | 34.3% | 60.9% | -14.7% | -8.65% | -11.7% | -6.77% | 5.15%
8 | O=c1cc(-c2ccc(O)cc2)oc2cc(O)cc(O)c12 [Apigenin] | > 10 µM | > 10 µM | -5.33% | -2.46% | -0.547% | -8.58% | 12.7% | 20.8% | 0.478% | 4.05% | 4.56% | 44.8%
9 | O=c1cc(O)c(Cl)c[nH]1 [Gimeracil] | > 10 µM | > 10 µM | -16.5% | -10.4% | -7.69% | -8.52% | 5.58% | -1.24% | -1.82% | -11.8% | -5.96% | -7.24%
10 | CN1CCN(C(=O)COc2ccc(C34CC5CC(CC(C5)C3)C4)cc2)CC1 | 9.27 µM | > 10 µM | 0.53% | 0.971% | 2.4% | 3.12% | 55.4% | -2.5% | -2.81% | -1.07% | -8.95% | 7.86%
11 | CC1(C)CC[C@]2(C(=O)O[C@@H]3O[C@H](CO)[C@@H](O)[C@H](O)[C@H]3O)CC[C@]3(C)C(=CC[C@@H]4[C@@]5(C)CC[C@H](O[C@@H]6O[C@H](C(=O)O)[C@@H](O)[C@H](O)[C@H]6O)C(C)(C)[C@@H]5CC[C@]43C)[C@@H]2C1 [Chikusetsusaponin IVa] | > 10 µM | > 10 µM | -3.21% | -3.77% | -2.17% | -0.406% | 19.3% | -1.39% | -7.09% | -12.1% | -11.2% | 3.05%
12 | O=c1oc2c(O)c(O)cc3c(=O)oc4c(O)c(O)cc1c4c23 [Ellagic acid] | > 10 µM | > 10 µM | -9.03% | -12.1% | -9.22% | -2.14% | -6.22% | -17.2% | -19% | -17.4% | -13.6% | -11.3%
13 | O=C(O)CCC(=O)c1ccc(-c2ccccc2)cc1 [Fenbufen] | > 10 µM | > 10 µM | -12.7% | -18.9% | -14.3% | 3.54% | -0.929% | 3.15% | 8.7% | 7.49% | 6.47% | 10.4%
14 | CO[C@H]1C[C@@H]2CC[C@@H](C)[C@@](O)(O2)C(=O)C(=O)N2CCCC[C@H]2C(=O)O[C@H]([C@H](C)C[C@@H]2CC[C@@H](O)[C@H](OC)C2)CC(=O)[C@H](C)/C=C(\C)[C@@H](O)[C@@H](OC)C(=O)[C@H](C)C[C@H](C)/C=C/C=C/C=C/1C [Rapamycin] | > 10 µM | > 10 µM | 4.81% | 4.98% | 3.36% | 17.6% | 18.4% | -3% | -2.75% | 2.91% | 0.723% | 24.6%
15 | Cn1cc(C[C@@H](N)C(=O)O)c2ccccc21 [Indoximod] | > 10 µM | > 10 µM | -22.6% | -22% | -24.2% | -19% | 3.49% | -15.9% | -19.5% | -14.6% | -4.79% | 3.27%
16 | O=C(C[C@H]1NCCC[C@@H]1O)Cn1cnc2cc(Br)c(Cl)cc2c1=O [Halofuginone hydrobromide] | 0.374 µM | 0.371 µM | 2.99% | -4.56% | 73.6% | 106% | 103% | -19.5% | -8.31% | 72.1% | 111% | 101%
17 | CCn1c(=O)c(-c2ccn[nH]2)cc2c(C)nc(N)nc21 [Voxtalisib] | 2.36 µM | 5.49 µM | 5.96% | -3.02% | 6.24% | 35.5% | 72.3% | 8.11% | 25.4% | 16.1% | 37.2% | 70.3%
18 | CCC(C)(Oc1ccc(C2(c3ccc(OC(C)(CC)C(=O)O)cc3)CCCCC2)cc1)C(=O)O (stereo unspecified) [Clinofibrate] | > 10 µM | > 10 µM | 12.9% | 5.15% | 19.9% | 28% | 51.7% | -13.2% | -10% | -7.17% | -15.8% | 0.951%
